From paper PMC6150173, “Tryptophan-Containing Cyclic Decapeptides with Activity against Plant Pathogenic Bacteria” (Molecules : A Journal of Synthetic Chemistry and Natural …, 2017)
Peptide text beside a SMILES is read from it.

Experiments:
Type in all cases: cell-based
[1] = test system: erythrocyte suspensions of human blood; assay: Hemolytic activity, hemoglobin release; conditions: human blood erythrocytes 5% v/v, absorbance 540 nm, percentage compared to melittin, three replicates; for Hemolysis (%) at 50 µM: peptide 50 μM (table prints 50 µM); for Hemolysis (%) at 125 µM: peptide 125 μM (table prints 125 µM)
Method: The hemolytic activity of the compounds was evaluated at 50 and 125 μM by determining hemoglobin release from erythrocyte suspensions of human blood (5% v/v) (Oxoid) using absorbance at 540 nm, as previously described. Three replicates for each peptide concentration were used.

[2] = test system: Erwinia amylovora PMV6076; assay: Antibacterial activity (MIC), in vitro growth inhibition; conditions: Table S1, MIC range
Method: (§1) Erwinia amylovora PMV6076 (Institut National de la Recherche Agronomique, Angers, France), Pseudomonas syringae pv. syringae EPS94 (Institut de Tecnologia Agroalimentària, Universitat de Girona, Spain), and Xanthomonas axonopodis pv. vesicatoria 2133-2 (Instituto Valenciano de Investigaciones Agrarias, Valencia, Spain) were used as bacterial strains. They were stored and cultivated as previously described.
(§2) The minimum inhibitory concentration (MIC) was analyzed as previously described at 0.8, 1.6, 3.1, 6.2, 12.5, 25 and 50 μM [20].

[3] = test system: Pseudomonas syringae pv. syringae EPS94; assay: as above; conditions: Table S1, MIC range
Method: as §1, §2

[4] = test system: Xanthomonas axonopodis pv. vesicatoria 2133-2; conditions: Table S1, MIC range
Method: as §1, §2

| Structure (SMILES) | Hemolysis (%) at 50 µM [1] [%] | Hemolysis (%) at 125 µM [1] | MIC Ea [2] [µM] | MIC Pss [3] [µM] | MIC Xav [4] [µM] |
| --- | --- | --- | --- | --- | --- |
| CC(C)C[C@@H]1NC(=O)[C@H](CCCCN)NC(=O)[C@H](CCCCN)NC(=O)[C@H](CCCCN)NC(=O)[C@H](CCCCN)NC(=O)[C@H](CCC(N)=O)NC(=O)[C@H](CC(C)C)NC(=O)[C@H](CC(C)C)NC(=O)[C@H](CCCCN)NC(=O)[C@H](Cc2c[nH]c3ccccc23)NC1=O [BPC060W, c(KKKKLWKLLQ)] (cyclo(KKKKLWKLLQ)) | 22 | 29% | 12.5 to 25 | 3.1 to 6.2 | 6.2 to 12.5 |
| CC(C)C[C@@H]1NC(=O)[C@H](CCCCN)NC(=O)[C@H](CCCCN)NC(=O)[C@H](CCCCN)NC(=O)[C@H](CCC(N)=O)NC(=O)[C@H](CC(C)C)NC(=O)[C@H](CC(C)C)NC(=O)[C@H](CCCCN)NC(=O)[C@H](Cc2c[nH]c3ccccc23)NC(=O)[C@H](CCCCN)NC1=O [BPC062W, c(KKKLKWKLLQ)] (cyclo(KKKLKWKLLQ)) | 3 | 4% | 12.5 to 25 | 3.1 to 6.2 | 6.2 to 12.5 |
| CC(C)C[C@@H]1NC(=O)[C@H](CCCCN)NC(=O)[C@H](CCCCN)NC(=O)[C@H](CCC(N)=O)NC(=O)[C@H](CC(C)C)NC(=O)[C@H](CC(C)C)NC(=O)[C@H](CCCCN)NC(=O)[C@H](Cc2c[nH]c3ccccc23)NC(=O)[C@H](CCCCN)NC(=O)[C@H](CCCCN)NC1=O [BPC064W, c(KKLKKWKLLQ)] (cyclo(KKLKKWKLLQ)) | 17 | 25% | 6.2 to 12.5 | 3.1 to 6.2 | 6.2 to 12.5 |
| CC(C)C[C@@H]1NC(=O)[C@H](CCCCN)NC(=O)[C@H](CCC(N)=O)NC(=O)[C@H](CC(C)C)NC(=O)[C@H](CC(C)C)NC(=O)[C@H](CCCCN)NC(=O)[C@H](Cc2c[nH]c3ccccc23)NC(=O)[C@H](CCCCN)NC(=O)[C@H](CCCCN)NC(=O)[C@H](CCCCN)NC1=O [BPC066W, c(KLKKKWKLLQ)] (cyclo(KKKWKLLQKL)) | 33 | 41% | 6.2 to 12.5 | 6.2 to 12.5 | 6.2 to 12.5 |
| CC(C)C[C@@H]1NC(=O)[C@H](CCC(N)=O)NC(=O)[C@H](CC(C)C)NC(=O)[C@H](CC(C)C)NC(=O)[C@H](CCCCN)NC(=O)[C@H](Cc2c[nH]c3ccccc23)NC(=O)[C@H](CCCCN)NC(=O)[C@H](CCCCN)NC(=O)[C@H](CCCCN)NC(=O)[C@H](CCCCN)NC1=O [BPC068W, c(LKKKKWKLLQ)] (cyclo(KKKKWKLLQL)) | 6 | 7% | 25 to 50 | 6.2 to 12.5 | 1.6 to 3.1 |
| CC(C)C[C@@H]1NC(=O)[C@H](CCCCN)NC(=O)[C@H](CC(C)C)NC(=O)[C@H](Cc2c[nH]c3ccccc23)NC(=O)[C@H](CC(C)C)NC(=O)[C@H](CCCCN)NC(=O)[C@H](CCCCN)NC(=O)[C@H](CCCCN)NC(=O)[C@H](CCCCN)NC(=O)[C@H](CCC(N)=O)NC1=O [BPC070W, c(KKKKLWLKLQ)] (cyclo(KKKKLWLKLQ)) | 6 | 9% | 12.5 to 25 | 6.2 to 12.5 | 1.6 to 3.1 |
| CC(C)C[C@@H]1NC(=O)[C@H](CCCCN)NC(=O)[C@H](CC(C)C)NC(=O)[C@H](Cc2c[nH]c3ccccc23)NC(=O)[C@H](CCCCN)NC(=O)[C@H](CC(C)C)NC(=O)[C@H](CCCCN)NC(=O)[C@H](CCCCN)NC(=O)[C@H](CCCCN)NC(=O)[C@H](CCC(N)=O)NC1=O [BPC072W, c(KKKLKWLKLQ)] (cyclo(KKKLKWLKLQ)) | 7 | 9% and below 20% | 12.5 to 25 | 3.1 to 6.2 | 1.6 to 3.1 |
| CC(C)C[C@@H]1NC(=O)[C@H](CCCCN)NC(=O)[C@H](CCCCN)NC(=O)[C@H](CCC(N)=O)NC(=O)[C@H](CC(C)C)NC(=O)[C@H](CCCCN)NC(=O)[C@H](CC(C)C)NC(=O)[C@H](Cc2c[nH]c3ccccc23)NC(=O)[C@H](CCCCN)NC(=O)[C@H](CCCCN)NC1=O [BPC074W, c(KKLKKWLKLQ)] (cyclo(KKLKKWLKLQ)) | 39 | 50% | 12.5 to 25 | 6.2 to 12.5 | 1.6 to 3.1 |
| CC(C)C[C@@H]1NC(=O)[C@H](CCCCN)NC(=O)[C@H](CCC(N)=O)NC(=O)[C@H](CC(C)C)NC(=O)[C@H](CCCCN)NC(=O)[C@H](CC(C)C)NC(=O)[C@H](Cc2c[nH]c3ccccc23)NC(=O)[C@H](CCCCN)NC(=O)[C@H](CCCCN)NC(=O)[C@H](CCCCN)NC1=O [BPC076W, c(KLKKKWLKLQ)] (cyclo(KKKWLKLQKL)) | 15 | 21% | 6.2 to 12.5 | 6.2 to 12.5 | 1.6 to 3.1 |
| CC(C)C[C@@H]1NC(=O)[C@H](CCC(N)=O)NC(=O)[C@H](CC(C)C)NC(=O)[C@H](CCCCN)NC(=O)[C@H](CC(C)C)NC(=O)[C@H](Cc2c[nH]c3ccccc23)NC(=O)[C@H](CCCCN)NC(=O)[C@H](CCCCN)NC(=O)[C@H](CCCCN)NC(=O)[C@H](CCCCN)NC1=O [BPC078W, c(LKKKKWLKLQ)] (cyclo(KKKKWLKLQL)) | 3 | 6% | 25 to 50 | 6.2 to 12.5 | 0.8 to 1.6 |
| CC(C)C[C@@H]1NC(=O)[C@H](CCCCN)NC(=O)[C@H](CCCCN)NC(=O)[C@H](Cc2c[nH]c3ccccc23)NC(=O)[C@H](CC(C)C)NC(=O)[C@H](CC(C)C)NC(=O)[C@H](CCCCN)NC(=O)[C@H](CCCCN)NC(=O)[C@H](CCCCN)NC(=O)[C@H](CCC(N)=O)NC1=O [BPC080W, c(KKKLLWKKLQ)] (cyclo(KKKLLWKKLQ)) | 3 | 4% | 12.5 to 25 | 6.2 to 12.5 | 0.8 to 1.6 |
| CC(C)C[C@@H]1NC(=O)[C@H](CCCCN)NC(=O)[C@H](CCCCN)NC(=O)[C@H](Cc2c[nH]c3ccccc23)NC(=O)[C@H](CC(C)C)NC(=O)[C@H](CCCCN)NC(=O)[C@H](CC(C)C)NC(=O)[C@H](CCCCN)NC(=O)[C@H](CCCCN)NC(=O)[C@H](CCC(N)=O)NC1=O [BPC082W, c(KKLKLWKKLQ)] (cyclo(KKLKLWKKLQ)) | 26 | 34% | 12.5 to 25 | 6.2 to 12.5 | 1.6 to 3.1 |
| CC(C)C[C@@H]1NC(=O)[C@H](CCCCN)NC(=O)[C@H](CC(C)C)NC(=O)[C@H](CC(C)C)NC(=O)[C@H](CCC(N)=O)NC(=O)[C@H](CC(C)C)NC(=O)[C@H](CCCCN)NC(=O)[C@H](CCCCN)NC(=O)[C@H](Cc2c[nH]c3ccccc23)NC(=O)[C@H](CCCCN)NC1=O [BPC196W, c(LLKLKWKKLQ)] (cyclo(KKLQLLKLKW)) | 2 | 3% | – | 3.1 to 6.2 | 1.6 to 3.1 |
| CC(C)C[C@@H]1NC(=O)[C@H](CCCCN)NC(=O)[C@H](CCCCN)NC(=O)[C@H](Cc2c[nH]c3ccccc23)NC(=O)[C@H](CCCCN)NC(=O)[C@H](CC(C)C)NC(=O)[C@H](CC(C)C)NC(=O)[C@H](CC(C)C)NC(=O)[C@H](CC(C)C)NC(=O)[C@H](CCC(N)=O)NC1=O [BPC200W, c(LLLLKWKKLQ)] (cyclo(KKLQLLLLKW)) | 6 | 7% | – | > 50 | 3.1 to 6.2 |
| CC(C)C[C@@H]1NC(=O)[C@H](CCCCN)NC(=O)[C@H](CCCCN)NC(=O)[C@H](Cc2c[nH]c3ccccc23)NC(=O)[C@H](CCCCN)NC(=O)[C@H](CCCCN)NC(=O)[C@H](CCCCN)NC(=O)[C@H](CCCCN)NC(=O)[C@H](CCCCN)NC(=O)[C@H](CCC(N)=O)NC1=O [BPC202W, c(KKKKKWKKLQ)] (cyclo(KKKKKWKKLQ)) | 0 | 1% | – | 25 to 50 | 12.5 to 25 |
